Laboratory results: patent US4118561A, “7-(Substituted)-7H-pyrrolo[3,2-f]quinazoline-1,3-diamines” (priority 1977, dated 1978)
In brackets after ≈: the same amount, converted by molar mass.

What was measured:
N. catarrhalis 8193 = assay: In vitro antibacterial activity (MIC), N. catarrhalis 8193; conditions: 18 h
S. aureus Smith = assay: In vitro antibacterial activity (MIC), S. aureus Smith; conditions: Staphylococcus aureus, 18 h
E. coli 9637 = assay: In vitro antibacterial activity (MIC), E. coli 9637; conditions: Escherichia coli, 9637, 18 h
S. paratyphi 11737 = assay: In vitro antibacterial activity (MIC), S. paratyphi 11737; assay type: cell-based; conditions: Salmonella enterica, 18 h
P. vulgaris 6896 = assay: In vitro antibacterial activity (MIC), P. vulgaris 6896; conditions: Proteus vulgaris, 6896, 18 h
K. pneumoniae 10031 = assay: In vitro antibacterial activity (MIC), K. pneumoniae 10031; conditions: Klebsiella pneumoniae, 10031, 18 h
S. aureus 53-180 = assay: In vitro antibacterial activity (MIC), S. aureus 53-180; conditions: Staphylococcus aureus, 53180, 18 h

| SMILES | MIC (N. catarrhalis 8193) | MIC (S. aureus Smith) | MIC (E. coli 9637) | MIC (S. paratyphi 11737) | MIC (P. vulgaris 6896) | MIC (K. pneumoniae 10031) | MIC (S. aureus 53-180) |
| --- | --- | --- | --- | --- | --- | --- | --- |
| Nc1nc(N)c2c(ccc3c2ccn3-c2cnccn2)n1 [Example 85] | 0.122 µg/mL (≈ 0.44 µM) | 3.9 µg/mL (≈ 14.1 µM) | 0.976 µg/mL (≈ 3.52 µM) | 3.9 µg/mL (≈ 14.1 µM) | 3.9 µg/mL (≈ 14.1 µM) | 0.976 µg/mL (≈ 3.52 µM) | 1.95 µg/mL (≈ 7.03 µM) |
| Nc1nc(N)c2c(ccc3c2ccn3-c2ccc3ccccc3n2)n1 [Example 86] | 0.122 µg/mL (≈ 0.374 µM) | > 250 µg/mL | > 250 µg/mL | > 250 µg/mL | > 250 µg/mL | > 250 µg/mL | > 250 µg/mL |
| Nc1nc(N)c2c(ccc3c2ccn3-c2ccnc3ccccc23)n1 [Example 87] | 0.031 µg/mL (≈ 0.095 µM) | 0.031 µg/mL (≈ 0.095 µM) | 0.488 µg/mL (≈ 1.5 µM) | 0.976 µg/mL (≈ 2.99 µM) | 1.95 µg/mL (≈ 5.97 µM) | 0.031 µg/mL (≈ 0.095 µM) | 0.0152 µg/mL (≈ 0.0466 µM) |
| Cc1cc(-n2ccc3c4c(N)nc(N)nc4ccc32)nc2ccccc12 [Example 88] | 0.061 µg/mL (≈ 0.179 µM) | 62.5 µg/mL (≈ 184 µM) | 62.5 µg/mL (≈ 184 µM) | > 250 µg/mL | > 250 µg/mL | 31.3 µg/mL (≈ 92 µM) | 31.3 µg/mL (≈ 92 µM) |
| Nc1nc(N)c2c(ccc3c2ccn3-c2ccnc3cc(Cl)ccc23)n1 [Example 89] | 0.244 µg/mL (≈ 0.676 µM) | 0.488 µg/mL (≈ 1.35 µM) | 15.6 µg/mL (≈ 43.2 µM) | > 250 µg/mL | 250 µg/mL (≈ 693 µM) | 0.488 µg/mL (≈ 1.35 µM) | 0.122 µg/mL (≈ 0.338 µM) |
| Nc1nc(N)c2c(ccc3c2ccn3-c2ccnc3cc(C(F)(F)F)ccc23)n1 [Example 90] | 0.031 µg/mL (≈ 0.0786 µM) | 0.122 µg/mL (≈ 0.309 µM) | 0.244 µg/mL (≈ 0.619 µM) | 31.3 µg/mL (≈ 79.4 µM) | 250 µg/mL (≈ 634 µM) | 0.244 µg/mL (≈ 0.619 µM) | 0.031 µg/mL (≈ 0.0786 µM) |
| Cc1cc(-n2ccc3c4c(N)nc(N)nc4ccc32)c2ccccc2n1 [Example 91] | 0.031 µg/mL (≈ 0.0911 µM) | 0.061 µg/mL (≈ 0.179 µM) | 1.95 µg/mL (≈ 5.73 µM) | 1.95 µg/mL (≈ 5.73 µM) | 3.9 µg/mL (≈ 11.5 µM) | 0.061 µg/mL (≈ 0.179 µM) | 0.061 µg/mL (≈ 0.179 µM) |
| Cc1nc2ccccc2nc1-n1ccc2c3c(N)nc(N)nc3ccc21 [Example 92] | 0.122 µg/mL (≈ 0.357 µM) | 1.95 µg/mL (≈ 5.71 µM) | 7.81 µg/mL (≈ 22.9 µM) | > 250 µg/mL | > 250 µg/mL | 0.976 µg/mL (≈ 2.86 µM) | 0.488 µg/mL (≈ 1.43 µM) |
| Nc1nc(N)c2c(ccc3c2ccn3-c2ccccc2C(F)(F)F)n1 [Example 93] | 0.0076 µg/mL (≈ 0.0221 µM) | 0.061 µg/mL (≈ 0.178 µM) | 0.244 µg/mL (≈ 0.711 µM) | 0.976 µg/mL (≈ 2.84 µM) | 1.95 µg/mL (≈ 5.68 µM) | 0.061 µg/mL (≈ 0.178 µM) | 0.031 µg/mL (≈ 0.0903 µM) |
| Nc1nc(N)c2c(ccc3c2ccn3-c2ccc([N+](=O)[O-])cc2C(F)(F)F)n1 [Example 94] | 0.061 µg/mL (≈ 0.157 µM) | 0.122 µg/mL (≈ 0.314 µM) | 31.3 µg/mL (≈ 80.6 µM) | 62.5 µg/mL (≈ 161 µM) | 125 µg/mL (≈ 322 µM) | 0.488 µg/mL (≈ 1.26 µM) | 0.122 µg/mL (≈ 0.314 µM) |
| Nc1nc(N)c2c(ccc3c2ccn3-c2cc(-c3ccccc3)nc3ccccc23)n1 [Example 95] | 15.6 µg/mL (≈ 38.8 µM) | 31.3 µg/mL (≈ 77.8 µM) | 250 µg/mL (≈ 621 µM) | > 250 µg/mL | > 250 µg/mL | 250 µg/mL (≈ 621 µM) | 7.81 µg/mL (≈ 19.4 µM) |
| Nc1ccc(-n2ccc3c4c(N)nc(N)nc4ccc32)cc1 [Example 96, 7-(4-Aminophenyl)-7H-pyrrolo[3,2-f]-quinazaline-1,3-diamine] | 0.0152 µg/mL (≈ 0.0524 µM) | 0.488 µg/mL (≈ 1.68 µM) | 0.244 µg/mL (≈ 0.84 µM) | 0.488 µg/mL (≈ 1.68 µM) | 0.976 µg/mL (≈ 3.36 µM) | 0.031 µg/mL (≈ 0.107 µM) | 0.244 µg/mL (≈ 0.84 µM) |
| Nc1nc(N)c2c(ccc3c2ccn3-c2nc3ccccc3s2)n1 [Example 97, 7-(2-Benzothiazolyl)-7H-pyrrolo-[3,2-f]quinazoline-1,3-diamine] | 0.488 µg/mL (≈ 1.47 µM) | 250 µg/mL (≈ 752 µM) | > 250 µg/mL | > 250 µg/mL | > 250 µg/mL | 62.5 µg/mL (≈ 188 µM) | 125 µg/mL (≈ 376 µM) |
| Cc1cc2c3c(N)nc(N)nc3ccc2n1C [Example 99] | 0.061 µg/mL (≈ 0.268 µM) | 31.3 µg/mL (≈ 138 µM) | 0.244 µg/mL (≈ 1.07 µM) | 1.95 µg/mL (≈ 8.58 µM) | 0.976 µg/mL (≈ 4.29 µM) | 0.244 µg/mL (≈ 1.07 µM) | 31.3 µg/mL (≈ 138 µM) |
| Cc1cc2c3c(N)nc(N)nc3ccc2n1Cc1cccc(C#N)c1 [Example 101] | 0.0038 µg/mL (≈ 0.0116 µM) | 0.122 µg/mL (≈ 0.372 µM) | 0.488 µg/mL (≈ 1.49 µM) | 3.9 µg/mL (≈ 11.9 µM) | 3.9 µg/mL (≈ 11.9 µM) | 0.061 µg/mL (≈ 0.186 µM) | 0.061 µg/mL (≈ 0.186 µM) |
| Cc1cc2c3c(N)nc(N)nc3ccc2n1Cc1ccc(C#N)cc1 [Example 102] | 0.061 µg/mL (≈ 0.186 µM) | 0.976 µg/mL (≈ 2.97 µM) | 1.95 µg/mL (≈ 5.94 µM) | 7.81 µg/mL (≈ 23.8 µM) | 31.3 µg/mL (≈ 95.3 µM) | 0.244 µg/mL (≈ 0.743 µM) | 0.976 µg/mL (≈ 2.97 µM) |
| Nc1nc(N)c2c(ccc3c2cc(Cl)n3Cc2ccccc2)n1 [Example 104, 8-Chloro-7-(phenylmethyl)-7H-pyrrolo-[3,2-f]quinazoline-1,3-diamine] | 0.061 µg/mL (≈ 0.188 µM) | 3.9 µg/mL (≈ 12 µM) | 3.9 µg/mL (≈ 12 µM) | 7.81 µg/mL (≈ 24.1 µM) | 31.3 µg/mL (≈ 96.7 µM) | 0.244 µg/mL (≈ 0.754 µM) | 0.976 µg/mL (≈ 3.01 µM) |
| Nc1nc(N)c2c(ccc3[nH]c(-c4ccccc4)cc32)n1 [Example 105, 8-Phenyl-7H-pyrrolo[3,2-f]-quinazoline-1,3-diamine] | 62.5 µg/mL (≈ 227 µM) | 7.81 µg/mL (≈ 28.4 µM) | 62.5 µg/mL (≈ 227 µM) | 125 µg/mL (≈ 454 µM) | > 250 µg/mL | 31.3 µg/mL (≈ 114 µM) | 15.6 µg/mL (≈ 56.7 µM) |
| Cn1c(-c2ccccc2)cc2c3c(N)nc(N)nc3ccc21 [Example 106, 7-Methyl-8-phenyl-7H-pyrrolo[3,2-f]-quinazoline-1,3-diamine] | 31.3 µg/mL (≈ 108 µM) | 62.5 µg/mL (≈ 216 µM) | > 250 µg/mL | > 250 µg/mL | > 250 µg/mL | 3.9 µg/mL (≈ 13.5 µM) | 125 µg/mL (≈ 432 µM) |
| Nc1nc(N)c2c(ccc3[nH]c4c(c32)CCCC4)n1 [Example 107, 8,9,10,11-Tetrahydro-7H-pyrimido-[4,5-c]carbazole-1,3-diamine] | 125 µg/mL (≈ 493 µM) | 62.5 µg/mL (≈ 247 µM) | 125 µg/mL (≈ 493 µM) | 125 µg/mL (≈ 493 µM) | > 250 µg/mL | 125 µg/mL (≈ 493 µM) | 125 µg/mL (≈ 493 µM) |
| Nc1nc(N)c2c(ccc3c2c2c(n3Cc3ccccc3)CCCC2)n1 [Example 108, 8,9,10,11-Tetrahydro-7-(phenylmethyl)-7H-pyrimido[4,5-c]carbazole-1,3-diamine] | 0.122 µg/mL (≈ 0.355 µM) | > 250 µg/mL | > 250 µg/mL | > 250 µg/mL | > 250 µg/mL | > 250 µg/mL | 250 µg/mL (≈ 728 µM) |
| Cn1c2c(c3c4c(N)nc(N)nc4ccc31)CCCC2 [Example 109, 8,9,10,11-Tetrahydro-7-methyl-7H-pyrimido[4,5-c]carbazole-1,3-diamine] | 3.9 µg/mL (≈ 14.6 µM) | 62.5 µg/mL (≈ 234 µM) | > 250 µg/mL | 250 µg/mL (≈ 935 µM) | > 250 µg/mL | 62.5 µg/mL (≈ 234 µM) | 62.5 µg/mL (≈ 234 µM) |
